Data set [1] in a line: In vivo CL/F determined. In kind it is ADME, organism-based. The settings on record: rat.
Data set [2] in a line: Tmax determined after 3 mg/kg oral administration in potassium oxonate treated rats. It is filed as ADME, organism-based. Also noted: dose 3 mg/kg, route oral. The settings on record: rat, in vivo.
The test system of data set [3] is Rattus norvegicus. As to the kind of experiment: Tested for hypouricemic effect in potassium oxonate (uricase inhibitor) treated (po) rats for 0-24 hr expressed as ED20. It is filed as functional.
In data set [4] the test system is Rattus norvegicus. As to the kind of experiment: Tested for hypouricemic effect in potassium oxonate (uricase inhibitor) treated (po) rats for 0-6 hr expressed as ED20. In kind it is functional.
A short description of data set [5]: Tmax determined after 0.3 mg/kg oral administration in potassium oxonate treated rats. The settings on record: rat, in vivo. It is filed as ADME, organism-based. More on the design: dose 0.3 mg/kg, route oral.
Data set [6] concerns the target T1, Xanthine dehydrogenase/oxidase (Bos taurus, UniProt P80457). The data set is described as follows: In vitro percent inhibition against Xanthine oxidase at concentration of 10000 nmol/L.
The target in data set [7] is T1, Xanthine dehydrogenase/oxidase. As to the kind of experiment: In vitro inhibitory concentration against Xanthine oxidase.
Data set [8] concerns Rattus norvegicus. The data set is described as follows: Tested for hypouricemic effect in potassium oxonate (uricase inhibitor) treated (po)rats for 0-6 hr expressed as ED20. It is filed as functional.

The term CL/F denotes the apparent clearance, not corrected for the fraction that reaches the circulation. A word on the Tmax: it is the time at which the peak concentration occurs. As a reminder, the inhibition is the change of the read-out against control, counted positive when it falls. Low readings indicate a response near the control, high ones a response far below the control. For orientation: IC50 means the concentration needed to halve the response being measured. Higher therefore signals a need for much substance.

T1 sequence (P80457 whole entry): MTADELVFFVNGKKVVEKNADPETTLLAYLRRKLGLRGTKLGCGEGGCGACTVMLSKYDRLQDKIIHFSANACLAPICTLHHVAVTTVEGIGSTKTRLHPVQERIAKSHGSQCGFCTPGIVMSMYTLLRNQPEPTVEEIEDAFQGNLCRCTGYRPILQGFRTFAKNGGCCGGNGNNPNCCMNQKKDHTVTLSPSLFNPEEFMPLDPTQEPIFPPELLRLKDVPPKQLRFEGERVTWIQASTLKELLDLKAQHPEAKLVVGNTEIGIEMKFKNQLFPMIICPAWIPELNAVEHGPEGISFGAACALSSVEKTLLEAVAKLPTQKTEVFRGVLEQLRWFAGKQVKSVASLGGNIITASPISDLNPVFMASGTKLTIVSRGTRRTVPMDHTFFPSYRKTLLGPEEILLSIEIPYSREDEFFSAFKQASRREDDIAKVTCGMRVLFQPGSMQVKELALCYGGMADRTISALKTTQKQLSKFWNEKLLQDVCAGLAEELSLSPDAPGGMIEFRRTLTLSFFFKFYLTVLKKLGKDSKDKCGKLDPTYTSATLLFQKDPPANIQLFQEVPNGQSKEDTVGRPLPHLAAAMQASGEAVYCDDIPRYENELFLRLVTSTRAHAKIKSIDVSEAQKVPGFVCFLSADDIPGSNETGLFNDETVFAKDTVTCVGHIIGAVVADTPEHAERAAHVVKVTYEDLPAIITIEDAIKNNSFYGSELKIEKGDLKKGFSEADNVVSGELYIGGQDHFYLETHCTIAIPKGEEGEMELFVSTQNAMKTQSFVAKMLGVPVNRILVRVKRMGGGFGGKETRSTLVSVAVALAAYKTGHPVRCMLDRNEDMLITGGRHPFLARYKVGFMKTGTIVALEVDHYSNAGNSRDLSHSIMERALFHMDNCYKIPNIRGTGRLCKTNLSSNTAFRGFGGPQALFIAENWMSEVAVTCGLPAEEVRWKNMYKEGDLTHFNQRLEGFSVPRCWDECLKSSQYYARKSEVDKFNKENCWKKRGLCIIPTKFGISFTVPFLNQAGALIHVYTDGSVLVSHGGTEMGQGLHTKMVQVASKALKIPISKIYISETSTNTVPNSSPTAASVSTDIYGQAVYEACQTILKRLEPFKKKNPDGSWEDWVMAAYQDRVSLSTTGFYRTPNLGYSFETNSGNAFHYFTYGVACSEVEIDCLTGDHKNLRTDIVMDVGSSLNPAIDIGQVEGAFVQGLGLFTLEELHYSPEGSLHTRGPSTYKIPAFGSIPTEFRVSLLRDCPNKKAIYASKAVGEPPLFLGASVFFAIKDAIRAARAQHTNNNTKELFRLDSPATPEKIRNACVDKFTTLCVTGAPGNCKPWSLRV

`CC(C)(C)COc1ccc(-n2cc(C(=O)O)cn2)cc1C#N` gave a CL/F in data set [1] of 0.12 L/h/kg. In addition, the Tmax in data set [2] and in data set [5] was 3.5 h throughout. The values for the ED20 in the data set with Rattus norvegicus [3] and in the data set with Rattus norvegicus [4] were 1.4 mg/kg and 0.55 mg/kg, respectively.

The compound `CCOC(=O)c1cnn(-c2ccc(OCC(C)C)c(C#N)c2)c1` showed an inhibition at 10 µM in data set [6] of under 50%.

In data set [1], `CC(C)COc1ccc(-n2cc(C(=O)O)cn2)cc1C#N` gave a CL/F of 0.59 L/h/kg. Besides, the results for the Tmax in data set [2] and in data set [5] were 1.3 h and 1.1 h, respectively. Besides, the ED20 is over 10 mg/kg with Rattus norvegicus [3] and 2.5 mg/kg in the data set with Rattus norvegicus [4].

With `O=C(O)c1cnn(-c2ccc(Cl)cc2)c1`, in data set [6], the inhibition at 10 µM is under 50%.

As for `COc1ccc(-n2cc(C(=O)O)cn2)cc1`, the inhibition at 10 µM in data set [6] is under 50%.

In turn, `CC(C)COc1ccc(-n2cc(C(=O)O)cn2)cc1[N+](=O)[O-]` gave an IC50 in data set [7] of 0.033 µM.

The compound `CN(C)CCOc1ccc(-n2cc(C(=O)O)cn2)cc1C#N` returned an IC50 in data set [7] of 0.7 µM.

Turning to `N#Cc1cc(-n2cc(C(=O)O)cn2)ccc1OCC(=O)O`, in data set [7], 1.5 µM corresponded to half-maximal inhibition (IC50).

For the compound `COc1ccc(-n2cc(C(=O)O)cn2)cc1C#N`, in data set [7], the midpoint of inhibition, the IC50, lay at 0.46 µM.

Consider `Oc1ncnc2[nH]ncc12` [ALLOPURINOL], for which the ED20 in the data set on Rattus norvegicus [3] was over 10 mg/kg; with Rattus norvegicus [8] it was 3.5 mg/kg.

Source of the values: ChEMBL document CHEMBL1134007, “Synthesis and structure-activity relationships of 1-phenylpyrazoles as xanthine oxidase inhibitors” (Bioorg Med Chem Lett, 2001).
